Laboratory results: US9156801B2, “2-substituted oleanolic acid derivative, method preparing for same, and application thereof” (HANGZHOU BENSHENG PHARMACEUTICAL CO., LTD., priority 2011, dated 2015)
Values after ≈ are worked out from the molar mass of the structure shown.

Legend:
RPMI8226 cell line = assay: multiple myeloma cell growth inhibition, MTT; format: cell-based; details: Homo sapiens, RPMI-8226; for inhibition at 16 µg/mL: RPMI8226, 16 μg/mL compound, 72 h, read-out: IR (cell proliferation inhibition rate); for IC50: RPMI8226, 72 h
Procedure, shortened: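 RPMI8226 cells (6000 per well) in RPMI 1640 with 10% FBS were exposed to several concentrations of compound for 72 h at 37° C and 5% CO2. Viable cells were quantified by MTT, with inhibition set to 0% in untreated controls.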

Kasumi-1 cell line = assay: leukemia cell growth inhibition, MTT; format: cell-based; details: Homo sapiens; for inhibition at 16 µg/mL: Kasumi-1, 16 μg/mL compound, 72 h, read-out: IR (cell proliferation inhibition rate); for IC50: Kasumi-1, 72 h
Procedure, shortened: (§1)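 Leukemia cells (6000 per well) are grown in 1640 medium containing 10% fetal bovine serum, treated with several concentrations of test derivative, and incubated 72 hours at 37° C in 5% CO2. The relative viable count is then measured by MTT.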

NB4 cell line = assay: leukemia cell growth inhibition, MTT; format: cell-based; details: Homo sapiens, NB-4; for inhibition at 16 µg/mL: NB4, 16 μg/mL compound, 72 h, read-out: IR (cell proliferation inhibition rate); for IC50: NB4, 72 h
Procedure, shortened: as §1

H9 cell line = assay: leukemia cell growth inhibition, MTT; format: cell-based; details: Homo sapiens; for IC50: H9, 72 h; for inhibition at 16 µg/mL: H9, 16 μg/mL compound, 72 h, read-out: IR (cell proliferation inhibition rate)
Procedure, shortened: as §1

K562/adr cell line = assay: leukemia cell growth inhibition, MTT; format: cell-based; details: Homo sapiens, 72 h; for IC50: K562/Adr; for inhibition at 16 µg/mL: K562/adr, 16 μg/mL compound, read-out: IR (cell proliferation inhibition rate)
Procedure, shortened: as §1

Jurkat cell line = assay: leukemia cell growth inhibition, MTT; format: cell-based; details: Homo sapiens, 72 h; for inhibition at 16 µg/mL: 16 μg/mL compound, read-out: IR (cell proliferation inhibition rate)
Procedure, shortened: as §1

Hep G2 cell line = assay: solid tumor cell growth inhibition, MTT; format: cell-based, human; details: Homo sapiens; for inhibition at 16 µg/mL: HepG2, 72 h, Hep G2, 16 μg/mL compound, 72 h, read-out: IR (cell proliferation inhibition rate); for IC50: HepG2, Hep G2, 72 h
Procedure, shortened: (§2)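 DMEM high glucose, 10% FBS, 4000 cells per well. 24 h at 37° C/5% CO2 before dosing, 72 h with compound. MTT end-point, inhibition normalized to untreated control at 0%.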

PC-3 cell line = assay: solid tumor cell growth inhibition, MTT; format: cell-based; details: Homo sapiens; for IC50: PC-3, 72 h; for inhibition at 16 µg/mL: PC-3, 16 μg/mL compound, 72 h, read-out: IR (cell proliferation inhibition rate)
Procedure, shortened: as §2

Hep-2 cell line = assay: solid tumor cell growth inhibition, MTT; format: cell-based; details: Homo sapiens; for IC50: HEp-2, 72 h; for inhibition at 16 µg/mL: Hep-2, 16 μg/mL compound, 72 h, read-out: IR (cell proliferation inhibition rate)
Procedure, shortened: as §2

PANC-1 cell line = assay: solid tumor cell growth inhibition, MTT; format: cell-based; details: Homo sapiens; for IC50: PANC-1, 72 h; for inhibition at 16 µg/mL: PANC-1, 16 μg/mL compound, 72 h, read-out: IR (cell proliferation inhibition rate)
Procedure, shortened: as §2

MG-63 cell line = assay: solid tumor cell growth inhibition, MTT; format: cell-based; details: Homo sapiens; for IC50: MG-63, 72 h; for inhibition at 16 µg/mL: MG-63, 16 μg/mL compound, 72 h, read-out: IR (cell proliferation inhibition rate)
Procedure, shortened: as §2

Becap37 cell line = assay: solid tumor cell growth inhibition, MTT; format: cell-based; details: Homo sapiens; for inhibition at 16 µg/mL: Becap37, 16 μg/mL compound, 72 h, read-out: IR (cell proliferation inhibition rate); for IC50: Becap37, 72 h
Procedure, shortened: as §2

U87 MG cell line = assay: solid tumor cell growth inhibition, MTT; format: cell-based; details: Homo sapiens, U-87 MG, 72 h; for inhibition at 16 µg/mL: 16 μg/mL compound, read-out: IR (cell proliferation inhibition rate)
Procedure, shortened: as §2

A549 cell line = assay: solid tumor cell growth inhibition, MTT; format: cell-based; details: Homo sapiens; for IC50: A549, 72 h; for inhibition at 16 µg/mL: A549, 16 μg/mL compound, 72 h, read-out: IR (cell proliferation inhibition rate)
Procedure, shortened: as §2

CNE cell line = assay: solid tumor cell growth inhibition, MTT; format: cell-based; details: Homo sapiens, 72 h; for inhibition at 16 µg/mL: 16 μg/mL compound, read-out: IR (cell proliferation inhibition rate)
Procedure, shortened: as §2

CaES-17 cell line = assay: solid tumor cell growth inhibition, MTT; format: cell-based; details: Homo sapiens, CaEs17; for inhibition at 16 µg/mL: CaES-17, 16 μg/mL compound, 72 h, read-out: IR (cell proliferation inhibition rate); for IC50: CaES-17, 72 h
Procedure, shortened: as §2

Hela cell line = assay: solid tumor cell growth inhibition, MTT; format: cell-based; details: Homo sapiens, 72 h; for IC50: HeLa; for inhibition at 16 µg/mL: Hela, 16 μg/mL compound, read-out: IR (cell proliferation inhibition rate)
Procedure, shortened: as §2

RKO cell line = assay: solid tumor cell growth inhibition, MTT; format: cell-based; details: Homo sapiens, 72 h; for inhibition at 16 µg/mL: 16 μg/mL compound, read-out: IR (cell proliferation inhibition rate)
Procedure, shortened: as §2

MGC 803 cell line = assay: solid tumor cell growth inhibition, MTT; format: cell-based; details: Homo sapiens; for inhibition at 16 µg/mL: MGC 803, 16 μg/mL compound, 72 h, read-out: IR (cell proliferation inhibition rate); for IC50: MGC 803, 72 h
Procedure, shortened: as §2

SK-OV-3 cell line = assay: solid tumor cell growth inhibition, MTT; format: cell-based; details: Homo sapiens; for IC50: SK-OV-3, 72 h; for inhibition at 16 µg/mL: SK-OV-3, 16 μg/mL compound, 72 h, read-out: IR (cell proliferation inhibition rate)
Procedure, shortened: as §2

IC50 (RPMI8226 cell line) [µg/mL]	IC50 (Kasumi-1 cell line) [µg/mL]	IC50 (NB4 cell line) [µg/mL]	IC50 (H9 cell line) [µg/mL]	IC50 (K562/adr cell line) [µg/mL]	IC50 (Jurkat cell line) [µg/mL]	IC50 (Hep G2 cell line) [µg/mL]	IC50 (PC-3 cell line) [µg/mL]	IC50 (Hep-2 cell line) [µg/mL]	IC50 (PANC-1 cell line) [µg/mL]	SMILES	inhibition at 16 µg/mL (RPMI8226 cell line) [%]	inhibition at 16 µg/mL (Kasumi-1 cell line) [%]	inhibition at 16 µg/mL (NB4 cell line) [%]	inhibition at 16 µg/mL (H9 cell line) [%]	inhibition at 16 µg/mL (K562/adr cell line) [%]	inhibition at 16 µg/mL (Jurkat cell line) [%]	inhibition at 16 µg/mL (Hep G2 cell line) [%]	inhibition at 16 µg/mL (PC-3 cell line) [%]	inhibition at 16 µg/mL (Hep-2 cell line) [%]	inhibition at 16 µg/mL (PANC-1 cell line) [%]	other results
> 16	> 16	> 16	> 16	> 16	> 16	> 16	> 16	> 16	> 16	COC(=O)[C@]12CCC(C)(C)C[C@H]1C1=CC[C@@H]3[C@@]4(C)CC(C(=O)NCC5CC5)C(=O)C(C)(C)[C@@H]4CC[C@@]3(C)[C@]1(C)CC2 (some centres unmarked) [BS-OA-048]	4.9	0.2	11	28.9	21.4	-21.2	7.4	17.7	-5.3	-17.8	IC50 (MG-63 cell line): > 16 µg/mL; inhibition at 16 µg/mL (MG-63 cell line): -20.3%; inhibition at 16 µg/mL (Becap37 cell line): -8.4%; IC50 (Becap37 cell line): > 16 µg/mL; inhibition at 16 µg/mL (U87 MG cell line): 5.6%; IC50 (U87 MG cell line): > 16 µg/mL; IC50 (A549 cell line): > 16 µg/mL; inhibition at 16 µg/mL (A549 cell line): -3.8%; inhibition at 16 µg/mL (CNE cell line): 21.9%; IC50 (CNE cell line): > 16 µg/mL; inhibition at 16 µg/mL (CaES-17 cell line): -18.6%; IC50 (CaES-17 cell line): > 16 µg/mL; IC50 (Hela cell line): > 16 µg/mL; inhibition at 16 µg/mL (Hela cell line): 2.4%; inhibition at 16 µg/mL (RKO cell line): -33.4%; IC50 (RKO cell line): > 16 µg/mL; inhibition at 16 µg/mL (MGC 803 cell line): -5.9%; IC50 (MGC 803 cell line): > 16 µg/mL; IC50 (SK-OV-3 cell line): > 16 µg/mL; inhibition at 16 µg/mL (SK-OV-3 cell line): 22%
> 16	> 16	16 (≈ 27.4 µM)	> 16	12.3 (≈ 21 µM)	> 16	> 16	> 16	> 16	> 16	COCCCNC(=O)C1C[C@]2(C)[C@H]3CC=C4[C@@H]5CC(C)(C)CC[C@]5(C(=O)OC)CC[C@@]4(C)[C@]3(C)CC[C@H]2C(C)(C)C1=O (some centres unmarked) [BS-OA-052]	25.2	19	46.7	38	64	-5	10	25.4	-11.3	8.4	IC50 (MG-63 cell line): > 16 µg/mL; inhibition at 16 µg/mL (MG-63 cell line): -33.5%; inhibition at 16 µg/mL (Becap37 cell line): -12%; IC50 (Becap37 cell line): > 16 µg/mL; inhibition at 16 µg/mL (U87 MG cell line): 10.9%; IC50 (U87 MG cell line): > 16 µg/mL; IC50 (A549 cell line): > 16 µg/mL; inhibition at 16 µg/mL (A549 cell line): 3.1%; inhibition at 16 µg/mL (CNE cell line): 9.9%; IC50 (CNE cell line): > 16 µg/mL; inhibition at 16 µg/mL (CaES-17 cell line): -8%; IC50 (CaES-17 cell line): > 16 µg/mL; IC50 (Hela cell line): > 16 µg/mL; inhibition at 16 µg/mL (Hela cell line): 25.6%; inhibition at 16 µg/mL (RKO cell line): -48.6%; IC50 (RKO cell line): > 16 µg/mL; inhibition at 16 µg/mL (MGC 803 cell line): -12.7%; IC50 (MGC 803 cell line): > 16 µg/mL; IC50 (SK-OV-3 cell line): > 16 µg/mL; inhibition at 16 µg/mL (SK-OV-3 cell line): 29.5%
